Usually Km stands for the concentration of substrate that gives half-maximal velocity.

The values below come from paper doi:10.1101/2025.05.29.656899v1 (biorxiv, 2025).

Assay in all cases: glucosylation kinetics, Michaelis-Menten
Type in all cases: biochemical

One assay deals with T1, UGT71C1 (Arabidopsis thaliana, UniProt O82381).
T1 sequence (O82381 1-481): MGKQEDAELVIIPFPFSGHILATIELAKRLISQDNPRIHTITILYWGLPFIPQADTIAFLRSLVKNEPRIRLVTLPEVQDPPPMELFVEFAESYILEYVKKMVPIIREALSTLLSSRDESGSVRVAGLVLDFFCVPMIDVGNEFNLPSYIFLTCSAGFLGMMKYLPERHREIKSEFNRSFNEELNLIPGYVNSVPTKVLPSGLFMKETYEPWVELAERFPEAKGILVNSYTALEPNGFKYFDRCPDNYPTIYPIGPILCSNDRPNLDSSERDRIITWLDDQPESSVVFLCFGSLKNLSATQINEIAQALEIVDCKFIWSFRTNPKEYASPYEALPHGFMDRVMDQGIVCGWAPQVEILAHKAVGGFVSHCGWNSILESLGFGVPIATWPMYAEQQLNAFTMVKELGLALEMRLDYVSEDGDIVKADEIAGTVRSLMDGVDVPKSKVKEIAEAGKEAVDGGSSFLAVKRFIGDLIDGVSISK
The settings on record: UDP-glucose donor; phosphate buffer pH 8.0; 30 °C.

The next assay deals with T2, UGT72B68 (Solanum lycopersicum, UniProt D7S016).
T2 sequence (D7S016 1-476): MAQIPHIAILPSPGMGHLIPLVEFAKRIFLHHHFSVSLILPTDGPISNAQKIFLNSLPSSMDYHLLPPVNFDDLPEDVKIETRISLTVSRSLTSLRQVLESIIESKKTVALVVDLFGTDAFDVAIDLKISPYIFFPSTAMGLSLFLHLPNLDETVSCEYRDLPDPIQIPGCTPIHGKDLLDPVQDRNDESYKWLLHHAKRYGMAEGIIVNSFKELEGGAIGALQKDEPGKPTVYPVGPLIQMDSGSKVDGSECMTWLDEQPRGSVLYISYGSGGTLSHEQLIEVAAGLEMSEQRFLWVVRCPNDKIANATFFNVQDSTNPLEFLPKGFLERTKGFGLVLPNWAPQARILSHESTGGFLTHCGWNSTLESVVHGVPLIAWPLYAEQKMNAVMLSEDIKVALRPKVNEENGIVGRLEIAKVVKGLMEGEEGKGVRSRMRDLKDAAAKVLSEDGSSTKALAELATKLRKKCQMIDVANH
The settings on record: UDP-glucose donor; phosphate buffer pH 8.0; 35 °C.

Another assay addresses T3, UGT72B19 (Fagopyrum esculentum, UniProt A0A0A1H7P3).
T3 sequence (A0A0A1H7P3 1-474): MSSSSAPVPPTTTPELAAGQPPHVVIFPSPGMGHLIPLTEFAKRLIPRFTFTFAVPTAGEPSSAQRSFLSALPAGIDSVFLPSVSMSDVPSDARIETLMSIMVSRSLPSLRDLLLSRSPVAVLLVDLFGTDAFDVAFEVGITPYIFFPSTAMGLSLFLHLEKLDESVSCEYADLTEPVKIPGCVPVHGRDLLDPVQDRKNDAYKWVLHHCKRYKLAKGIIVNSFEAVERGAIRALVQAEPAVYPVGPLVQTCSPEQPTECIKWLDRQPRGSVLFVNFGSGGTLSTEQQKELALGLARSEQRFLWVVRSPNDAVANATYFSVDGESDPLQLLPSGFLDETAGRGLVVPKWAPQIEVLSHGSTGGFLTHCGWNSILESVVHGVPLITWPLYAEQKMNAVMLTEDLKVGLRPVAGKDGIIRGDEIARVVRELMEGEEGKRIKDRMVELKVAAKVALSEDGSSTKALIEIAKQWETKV
The settings on record: UDP-glucose donor; phosphate buffer pH 8.0; 39 °C.

Regarding `COC(=O)c1ccccc1N` [MANT, methyl anthranilate], the Km at UGT71C1 stood at 164 ± 22 µM; on UGT72B68 it was 347 ± 45.7 µM; at UGT72B19 it was 212 ± 19.1 µM.
